Laboratory results published in patent US20250143290A1, “AGROCHEMICAL COMPOSITION COMPRISING AT LEAST ONE AGROCHEMICAL ACTIVE COMPONENT AND A SOLVENT” (MINAGRO SRL, priority 2022, published 2025).

Tests used:
physchem = details: for solubility: organic solvent or mixture, thermodynamic from solid
Source text: Said saturated solutions were subsequently analyzed by HPLC to determine the agrochemical active component concentration. The samples were centrifuged and filtered twice through 1.6 and 0.45 μm filters to remove any extraneous material prior to analysis.
For each combination of agrochemical active component, a calibration curve was established to plot the instrumental response, e.g., the analytical signal, changes with the concentration of the agrochemical active component.

[1] = Hansen and Hildebrand solubility parameters
Source text: The Hansen solubility parameters are used for predicting if one material will dissolve in another and form a (homogeneous) solution.
Furthermore, solvents with similar Hansen solubility parameters will have similar solubility characteristics, including which agrochemical active components will and which agrochemical active components will not dissolve in the solvents.

Lactuca sativa = test: Phytotoxicity study on lettuce; type: in vivo; details: lettuce Lucrecia RZ sprayed until saturation at 1%, 2%, 5% and 10%; 5 and 10 days after spraying
Procedure: The aim of this experiment is to determine if these solvents can cause phytotoxicity on lettuce at different concentrations. Lettuce of the Lucrecia RZ variety was sown in potting soil and transplanted into 3L pots. For each of the solvents, four concentrations were tested: 1%, 2%, 5% and 10%. A control (water) was also performed. […] Fifteen replicates per treatment were conducted. A monitoring of the appearance of potential spots due to phytotoxicity is carried out 5 days and 10 days after spraying.

[2] = system: microorganisms of the inoculum
Procedure: The test duration is 28 days. The vessels contained 250 ml of the inoculated buffered mineral salt medium and the test material (test substance or reference substance) as the sole carbon source. To each test series blanks (without test material) were set up to run in parallel. Incubation was conducted at 22±1° C. in diffuse light and agitation by magnetic stirrers. All analyses were conducted at least in duplicate. Oxygen consumption was continuously measured with a respirometer. The amount of oxygen taken up by the microorganisms during biodegradation (biological oxygen demand; BOD) is compared with the chemical oxygen demand (COD) of the test substance. The percent biodegradation of the test substance is calculated from the BOD in relation to the COD or alternative of the theoretical oxygen demand (ThOD) of the test substance. The test material (92 mg/L) was distributed in a thin layer on an inert carrier (glass fiber filter) and added directly to the aqueous medium.

Row | SMILES | Hansen Solubility Parameters δd [1] | Hansen Solubility Parameters δn [1] | Hansen Solubility Parameters δp [1] | Hildebrand δ [1] | also measured
1 | CC(COc1ccc(Oc2ccccc2)cc1)Oc1ccccn1 (stereo not shown) [Pyriproxyfen] | – | – | – | – | solubility (physchem; Solubility in saturation): 631 mg/mL
2 | CC1=CC(=O)CC(C)(C)C1 [Isophorone] | 16.6 J/mL | 7.4 J/mL | 8.2 J/mL | 19.94 J/mL | –
3 | CCCCOC(C)=O [n-butyl acetate] | 15.8 J/mL | 6.3 J/mL | 3.7 J/mL | 17.41 J/mL | –
4 | COC(=O)Nc1cccc(OC(=O)Nc2cccc(C)c2)c1 [Phenmidipham] | – | – | – | – | Solubility in saturation (physchem; in n-butyl THF, saturated solution MT 181, HPLC, pure active ingredient): 35.66 mg/mL; Solubility in saturation (physchem; in t-butyl THF, saturated solution MT 181, HPLC, pure active ingredient): 37.11 mg/mL
5 | O=C1CCCCC1 [Cyclohexanone] | 17.8 J/mL | 5.1 J/mL | 6.3 J/mL | 19.56 J/mL | –
6 | Nc1c(Cl)c(F)nc(OCC(=O)O)c1Cl [Fluroxypyr] | – | – | – | – | Solubility in saturation (physchem): 546.25 mg/mL; solubility (physchem; Solubility in saturation): 537 mg/mL
7 | CCOC(C)=O [Ethyl Acetate] | 15.8 J/mL | 7.2 J/mL | 5.3 J/mL | 18.15 J/mL | –
8 | OCC1CCCO1 (stereo not shown) [THFA TetraHydroFurfurylAlcohol, TetraHydroFurfurylAlcohol] | 17.8 J/mL | 10.2 J/mL | 8.2 J/mL | 22.09 J/mL | –
9 | Cc1ccc(C)cc1 [p-Xylène] | 17.6 J/mL | 3.1 J/mL | 1 J/mL | 17.90 J/mL | –
10 | OC(Cc1ccccc1Cl)(Cn1nc[nH]c1=S)C1(Cl)CC1 (stereo not shown) [Prothioconazole] | – | – | – | – | solubility (physchem): 341 mg/mL
11 | CC(C)(C)OCC1CCCO1 (stereo not shown) [t-butyl THF, 2-(tert-Butoxymethyl)tetrahydrofuran] | – | – | – | – | phytotoxicity on salads (spots) (Lactuca sativa): absence of phytotoxicity
12 | CCCCOCC1CCCO1 (stereo not shown) [n-butyl THF, 2-(butoxymetyl)tetrahydrofuraan] | 16.47 J/mL | 5.96 J/mL | 4.74 J/mL | 18.15 J/mL | inhibition of the microorganisms of the inoculum [2]: non-inhibitory; phytotoxicity on salads (spots) (Lactuca sativa): absence of phytotoxicity
13 | CC(C)(C)C(O)(CCc1ccc(Cl)cc1)Cn1cncn1 (stereo not shown) [Tebuconazole] | – | – | – | – | solubility (physchem; Solubility in saturation): 181 mg/mL; solubility (physchem; t-butyl THF, Solubility in saturation, in t-butyl THF, saturated solution MT 181, HPLC, pure active ingredient): 188 mg/mL
14 | CC1(C)CCC(Cc2ccc(Cl)cc2)C1(O)Cn1cncn1 (stereo not shown) [Metconazole] | – | – | – | – | solubility (physchem; Solubility in saturation): 210 mg/mL
